Data on twelve molecules can be found in patent publication US10189863B2, “5,6-dihydro-4H-benzo[b]thieno-[2,3-d]azepine derivatives” (PULMOCIDE LIMITED, priority 2014, dated 2019).

Series [1] in a line: Cell viability: resazurin assay. The class given is cell-based, human. The following applies: human, HEp2 cells. The method, boiled down:
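Viability read-out: resazurin fluorescence (ex 545, em 590 nm) after 6 h, following 5-day compound incubation of HEp2 cells (37 °C, 5% CO2, 5% FBS, 0.5% DMSO final). Loss expressed as percentage of vehicle, negative if viability rose; CC50 derived from concentration-response curve where appropriate.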
Background: The colour change of resazurin is a common sign of viable cells or microbes.

For a further series, the system named is RSV A2 strain. Kind of series: Assessment of RSV induced CPE in HEp2 cells (RSV A2 strain). The class given is cell-based. The following applies: human respiratory syncytial virus, HEp2 cells; for IC50: HEp-2, 120 h, 1 MOI, 5 days, read-out: RSV A2 CPE IC50; for inhibition at 0.01 µg/mL / inhibition at 0.1 µg/mL: HEp-2; for inhibition at 0.01 µg/mL: Inhibition (%) at 0.01 μg/mL; for inhibition at 0.1 µg/mL: Inhibition (%) at 0.1 μg/mL, read-out: RSV A2 CPE % Inhibition. The gist of the method:
(§1)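 HEp2 cells were infected at MOI 1 with RSV A2 or RSV B Washington, with compound added at the same time (0.5% DMSO final). Incubation was 5 days for A2 and 6 days for B, then viability was read by resazurin fluorescence (545/590 nm) after 6 h. IC50, IC75 and IC90 came from concentration-response curves.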

Another series concerns RSV B Washington strain. Kind of series: Assessment of RSV induced CPE in HEp2 cells (RSV B Washington strain). The following applies: human respiratory syncytial virus, HEp2 cells; for IC50: HEp-2, 144 h, 1 MOI, 6 days, read-out: RSV B CPE IC50; for inhibition at 1 µg/mL: Inhibition (%) at 1 μg/mL, read-out: RSV B CPE % Inhibition. It counts as cell-based. The method, boiled down: as §1

For `Cc1cnc(N2CC3(CCOCC3)C2)c(C(=O)Nc2ccc(C(=O)N3CCc4cc(C(=O)Nc5c(C)cccc5C#N)sc4-c4ccccc43)cc2)c1` [Example 62, N-(2-cyano-6-methylphenyl)-6-(4-(5-methyl-2-(7-oxa-2-azaspiro[3.5]nonan-2-yl)nicotinamido)benzoyl)-5,6-dihydro-4H-benzo[b]thieno[2,3-d]azepine-2-carboxamide], the CC50 (commonly the concentration at which the toxic effect on the cells reaches its halfway point) at 5 days in series [1] is greater than 13800 nM. Moreover, in the series on RSV A2 strain, the IC50 (commonly the point on the concentration scale where inhibition reaches its midpoint) was 0.13 nM and the inhibition – broadly, the percentage by which the read-out fell short of the control – at 0.01 µg/mL stood at 89%. The IC50 in the series with RSV B Washington strain worked out at 0.9 nM. The inhibition at 1 µg/mL in the series on RSV B Washington strain (HEp-2) came to 100%.
On to `Cc1ccccc1NC(=O)c1cc2c(s1)-c1ccccc1N(C(=O)c1ccc(NC(=O)c3cc(C)c(C)nc3N3CC4(CCOCC4)C3)cc1)CC2` [Example 42, 6-(4-(5,6-dimethyl-2-(7-oxa-2-azaspiro[3.5]nonan-2-yl)nicotinamido)benzoyl)-N-(o-tolyl)-5,6-dihydro-4H-benzo[b] thieno[2,3-d]azepine-2-carboxamide], for which, in series [1], the half-maximal cytotoxic concentration (CC50) at 5 days is greater than 14000 nM. In addition, the results for the IC50 in the series on RSV A2 strain and with RSV B Washington strain were 0.14 nM and 60.5 nM, respectively. In addition, the inhibition at 0.1 µg/mL in the series with RSV A2 strain is 97%. Further, the inhibition at 1 µg/mL with RSV B Washington strain (HEp-2) amounted to 80%.
The corresponding values for `O=C(Nc1ccc(Cl)cc1F)c1cc2c(s1)-c1ccccc1N(C(=O)c1ccc(NC(=O)c3cccnc3N3CC4(CCOCC4)C3)cc1)CC2` [Example 21, 6-(4-(2-(7-oxa-2-azaspiro[3.5]nonan-2-yl)nicotinamido)benzoyl)-N-(4-chloro-2-fluorophenyl)-5,6-dihydro-4H-benzo[b]thieno[2,3-d]azepine-2-carboxamide] are greater than 13800 nM, 1.3 nM, 100 nM, 100% and 73%.
Taken in the same sequence, the figures for `Cc1cnc(N2CC3(CCOCC3)C2)c(C(=O)Nc2ccc(C(=O)N3CCc4cc(C(=O)Nc5ccccc5Cl)sc4-c4ccccc43)cc2)c1` [Example 34, N-(2-chlorophenyl)-6-(4-(5-methyl-2-(7-oxa-2-azaspiro [3.5]nonan-2-yl)nicotinamido)benzoyl)-5,6-dihydro-4H-benzo[b]thieno[2,3-d]azepine-2-carboxamide] were greater than 13900 nM, 0.11 nM, 38.5 nM, 100% and 86%.
In the case of `Cc1cc(C(=O)Nc2ccc(C(=O)N3CCc4cc(C(=O)Nc5ccc(F)cc5F)sc4-c4ccccc43)cc2)c(N2CC3(CCOCC3)C2)nc1C` [Example 45, N-(2,4-difluorophenyl)-6-(4-(5,6-dimethyl-2-(7-oxa-2-azaspiro[3.5]nonan-2-yl)nicotinamido)benzoyl)-5,6-dihydro-4H-benzo[b]thieno[2,3-d]azepine-2-carboxamide], the CC50 at 5 days in series [1] was greater than 13600 nM. In the series with RSV A2 strain, the IC50 was 0.11 nM and the inhibition at 0.1 µg/mL stood at 100%. In addition, in the series with RSV B Washington strain, the IC50 came to 84 nM. The inhibition at 1 µg/mL in the series on RSV B Washington strain (HEp-2) came to 68%.
Turning to `O=C(Nc1c(F)cccc1F)c1cc2c(s1)-c1ccccc1N(C(=O)c1ccc(NC(=O)c3cc(C4CC4)cnc3N3CC4(CCOCC4)C3)cc1)CC2` [Example 72, 6-(4-(5-cyclopropyl-2-(7-oxa-2-azaspiro[3.5]nonan-2-yl)nicotinamido)benzoyl)-N-(2,6-difluorophenyl)-5,6-dihydro-4H-benzo[b]thieno[2,3-d]azepine-2-carboxamide], in series [1], the CC50 at 5 days is greater than 13400 nM. In addition, in the series with RSV A2 strain, the IC50 amounted to 0.32 nM and 0.01 µg/mL produced 100% inhibition. Besides, the IC50 with RSV B Washington strain came to 3.3 nM. For the same molecule, the inhibition at 1 µg/mL in the series on RSV B Washington strain (HEp-2) is 89%.
Turning to `Cc1cnc(N2CC3(CCOCC3)C2)c(C(=O)Nc2ccc(C(=O)N3CCc4cc(C(=O)Nc5ccc(F)cc5F)sc4-c4ccccc43)cc2)c1` [Example 38, N-(2,4-difluorophenyl)-6-(4-(5-methyl-2-(7-oxa-2-aza-spiro[3.5]nonan-2-yl)nicotinamido)benzoyl)-5,6-dihydro-4H-benzo[b]thieno[2,3-d]azepine-2-carboxamide], the CC50 at 5 days in series [1] is greater than 13900 nM. In addition, in the series with RSV A2 strain, the IC50 is less than 0.014 nM and the inhibition at 0.1 µg/mL worked out at 100%. Moreover, the IC50 in the series on RSV B Washington strain was 18.4 nM. Moreover, in the series on RSV B Washington strain (HEp-2), the inhibition at 1 µg/mL is 73%.
Taken in the same sequence, the figures for `COc1ccc(NC(=O)c2cc3c(s2)-c2ccccc2N(C(=O)c2ccc(NC(=O)c4cccnc4N4CC5(CCOCC5)C4)cc2)CC3)c(F)c1` [Example 23, 6-(4-(2-(7-oxa-2-azaspiro[3.5]nonan-2-yl)nicotinamido)benzoyl)-N-(2-fluoro-4-methoxyphenyl)-5,6-dihydro-4H-benzo[b]thieno[2,3-d]azepine-2-carboxamide] were greater than 13900 nM, 1.1 nM, 100%, 16.3 nM and 55%.
The corresponding values for `Cc1ccc(C(=O)Nc2ccc(C(=O)N3CCc4cc(C(=O)Nc5c(F)cccc5Cl)sc4-c4ccccc43)cc2)c(N2CC3(CCOCC3)C2)n1` [Example 41, N-(2-chloro-6-fluorophenyl)-6-(4-(6-methyl-2-(7-oxa-2-azaspiro[3.5]nonan-2-yl)nicotinamido)benzoyl)-5,6-dihydro-4H-benzo[b]thieno[2,3-d]azepine-2-carboxamide] are greater than 13600 nM, 0.11 nM, 100%, 15.4 nM and 79%.
In the case of `Cc1cccc(F)c1NC(=O)c1cc2c(s1)-c1ccccc1N(C(=O)c1ccc(NC(=O)c3cc(F)cnc3N3CC4(CCOCC4)C3)cc1)CC2` [Example 68, 6-(4-(5-fluoro-2-(7-oxa-2-azaspiro[3.5]nonan-2-yl)nicotinamido)benzoyl)-N-(2-fluoro-6-methylphenyl)-5,6-dihydro-4H-benzo[b]thieno[2,3-d]azepine-2-carboxamide], in series [1], the CC50 at 5 days was greater than 13900 nM. In the series with RSV A2 strain, the IC50 was determined as 0.087 nM and the inhibition at 0.01 µg/mL turned out to be 90%. In addition, the IC50 in the series on RSV B Washington strain worked out at 17.1 nM. Further, in the series with RSV B Washington strain (HEp-2), the inhibition at 1 µg/mL was 100%.
In series [1], `O=C(Nc1c(F)cccc1F)c1cc2c(s1)-c1ccccc1N(C(=O)c1ccc(NC(=O)c3cc4ccccc4nc3N3CC4(CCOCC4)C3)cc1)CC2` [Example 86, 6-(4-(2-(7-oxa-2-azaspiro[3.5]nonan-2-yl)quinoline-3-carboxamido)benzoyl)-N-(2,6-difluorophenyl)-5,6-dihydro-4H-benzo[b]thieno[2,3-d]azepine-2-carboxamide] registered a CC50 at 5 days greater than 13200 nM. In addition, in the series on RSV A2 strain, the IC50 stood at 0.17 nM and the inhibition at 0.01 µg/mL is 85%. In addition, in the series on RSV B Washington strain, the IC50 stood at 23 nM. Further, in the series on RSV B Washington strain (HEp-2, Inhibition (%) at 0.1 μg/mL), the inhibition at 0.1 µg/mL was 100%.
For `Cc1ccc(C(=O)Nc2ccc(C(=O)N3CCc4cc(C(=O)Nc5c(F)cc(F)cc5F)sc4-c4ccccc43)cc2)c(N2CC3(CCOCC3)C2)n1` [Example 50, 6-(4-(6-methyl-2-(7-oxa-2-azaspiro[3.5]nonan-2-yl)nicotinamido)benzoyl)-N-(2,4,6-trifluorophenyl)-5,6-dihydro-4H-benzo[b]thieno[2,3-d]azepine-2-carboxamide], the CC50 at 5 days in series [1] is greater than 13600 nM. Also, in the series with RSV A2 strain, the concentration for half-maximal inhibition (IC50) stood at 0.13 nM and the inhibition at 0.1 µg/mL is 100%. In addition, the IC50 in the series with RSV B Washington strain is 1.7 nM. In addition, in the series on RSV B Washington strain (HEp-2), the inhibition at 1 µg/mL was 100%.
